Reference: US12404283B2, “c-MYC mRNA translation modulators and uses thereof in the treatment of cancer” (Anima Biotech Inc., priority 2022, dated 2025)
Where a name gives a salt, the structure may show the parent alone.

Test system: c-Myc
Assay: c-Myc immunofluorescence assay
Format: cell-based, human
Conditions: A549 cells, 24 hours treatment, anti-c-Myc immunofluorescence
In short: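 High-content imaging (20×) of PFA-fixed A549 cells immunostained for c-Myc with DAPI nuclei, after 24 h compound treatment at increasing concentrations. Per-cell c-Myc signal in identified cell regions was plotted against dose and fitted by logistic regression to give EC50.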

| SMILES | Myc Efficacy (−LogEC50) |
| --- | --- |
| Cc1ccc(-c2cn3c(n2)sc2cc(C(=O)NCC4CNC4)ccc23)cc1 [compound 117, N-(azetidin-3-ylmethyl)-2-(p-tolyl)benzo[d]imidazo [2,1-b]thiazole-7-carboxamide] | + (+ >3 and <5) |
| CCN(CC)CCCNC(=O)c1ccc2c(c1)sc1nc(-c3cccc(C)c3)cn12 [compound 118, N-(3-(diethylamino)propyl)-2-(m-tolyl)benzo[d]imidazo [2,1-b]thiazole-7-carboxamide] | +++ (+++ ≥6) |
| CCN1CCC[C@H]1CNC(=O)c1ccc2c(c1)sc1nc(-c3cccc(OC)c3)cn12 [compound 119, (S)-N-((1-ethylpyrrolidin-2-yl)methyl)-2-(3-methoxyphenyl)benzo[d] imidazo[2,1-b]thiazole-7-carboxamide] | ++ (++ ≥5 and <6) |
| Cc1ccc(-c2cn3c(n2)sc2cc(C(=O)NCCN)ccc23)cc1 [compound 122, N-(2-aminoethyl)-2-(p-tolyl)benzo[d]imidazo[2,1-b]thiazole-7-carboxamide] | + (+ >3 and <5) |
| CCN(CC)CCCNC(=O)c1ccc2c(c1)sc1nc(-c3ccccc3C)cn12 [compound 123, N-(3-(diethylamino)propyl)-2-(o-tolyl)benzo[d]imidazo [2,1-b]thiazole-7-carboxamide] | ++ (++ ≥5 and <6) |
| CCN(CC)CCCNC(=O)c1ccc2c(c1)sc1nc(-c3ccccc3Cl)cn12 [compound 124, 2-(2-ehlorophenyl)-N-(3-(diethylamino)propyl)benzo [d]imidazo[2,1-b]thiazole-7-carboxamide] | ++ (++ ≥5 and <6) |
| CCN(CC)CCCNC(=O)c1ccc2c(c1)sc1nc(-c3ccc(C(=O)NC)cc3)cn12 [compound 125, N-(3-(diethylamino)propyl)-2-(4-(methylcarbamoyl)phenyl) benzo[d]imidazo[2,1-b]thiazole-7-carboxamide] | ++ (++ ≥5 and <6) |
| CCc1ccc(-c2cn3c(n2)sc2cc(C(=O)NCCCN(CC)CC)ccc23)cc1 [compound 126, N-(3-(diethylamino)propyl)-2-(4-ethylphenyl)benzo[d] imidazo[2,1-b]thiazole-7-carboxamide] | ++ (++ ≥5 and <6) |
| CCN1CCC[C@@H]1CNC(=O)c1ccc2c(c1)sc1nc(-c3cccc(OC)c3)cn12 [compound 127, (R)-N-((1-ethylpyrrolidin-2-yl)methyl)-2-(3-methoxyphenyl)benzo[d] imidazo[2,1-b]thiazole-7-carboxamide] | + (+ >3 and <5) |
| CCN(CC)CCCNC(=O)c1ccc2c(c1)sc1nc(-c3ccccc3F)cn12 [compound 129, N-(3-(diethylamino)propyl)-2-(2-fluorophenyl)benzo[d] imidazo[2,1-b]thiazole-7-carboxamide] | ++ (++ ≥5 and <6) |
| CCN(CC)CCCNC(=O)c1ccc2c(c1)sc1nc(-c3cccc(F)c3)cn12 [compound 130, N-(3-(diethylamino)propyl)-2-(3-fluorophenyl)benzo[d] imidazo[2,1-b]thiazole-7-carboxamide] | ++ (++ ≥5 and <6) |
| CCN(CC)CCCNC(=O)c1ccc2c(c1)sc1nc(-c3cccc(Cl)c3)cn12 [compound 131, 2-(3-chlorophenyl)-N-(3-(diethylamino)propyl)benzo [d]imidazo[2,1-b]thiazole-7-carboxamide] | ++ (++ ≥5 and <6) |
| O=C(NCCCN1CCCCC1)c1ccc2c(c1)sc1nc(-c3ccc(Cl)cc3)cn12 [compound 132, 2-(4-chlorophenyl)-N-(3-(piperidin-1-yl)propyl) benzo[d]imidazo[2,1-b]thiazole-7-carboxamide] | ++ (++ ≥5 and <6) |
| Cc1cccc(-c2cn3c(n2)sc2cc(C(=O)NCCCN4CCC(F)(F)CC4)ccc23)c1 [compound 133, N-(3-(4,4-difluoropiperidin-1-yl)propyl)-2-(m-tolyl)benzo[d]imidazo[2,1-b]thiazole-7-carboxamide] | ++ (++ ≥5 and <6) |
| Cc1cccc(-c2cn3c(n2)sc2cc(C(=O)NCCCN4CCOCC4)ccc23)c1 [compound 134, N-(3-morpholinopropyl)-2-(m-tolyl)benzo[d]imidazo[2,1-b]thiazole-7-carboxamide] | + (+ >3 and <5) |
| Cc1cccc(-c2cn3c(n2)sc2cc(C(=O)NCCCN4CCS(=O)(=O)CC4)ccc23)c1 [compound 135, N-(3-(1,1-dioxidothiomorpholino)propyl)-2-(m-tolyl)benzo[d]imidazo[2,1-b]thiazole-7-carboxamide] | + (+ >3 and <5) |
| CCN(CC)CCCNC(=O)c1ccc2c(c1)sc1nc(-c3ccc(C(C)C)cc3)cn12 [compound 136, N-(3-(diethylamino)propyl)-2-(4-isopropylphenyl)benzo[d] imidazo[2,1-b]thiazole-7-carboxamide formate] | ++ (++ ≥5 and <6) |
| Cc1cccc(-c2cn3c(n2)sc2cc(C(=O)NCCCN4CCC(F)CC4)ccc23)c1 [compound 137, N-(3-(4-fluoropiperidin-1-yl)propyl)-2-(m-tolyl)benzo[d]imidazo[2,1-b]thiazole-7-carboxamide] | ++ (++ ≥5 and <6) |

| SMILES | Myc Efficacy (−LogEC50) |
| --- | --- |
| Cc1cccc(-c2cn3c(n2)sc2cc(C(=O)N[C@H]4C[C@@H](N5CCCCC5)C4)ccc23)c1 [compound 138, N-((1s,3s)-3-(piperidin-1-yl)cyclobutyl)-2-(m-tolyl)benzo[d]imidazo[2,1-b]thiazole-7-carboxamide] | ++ (++ ≥5 and <6) |
| Cc1cccc(-c2cn3c(n2)sc2cc(C(=O)NCCCC4CCOCC4)ccc23)c1 [compound 139, N-(3-(tetrahydro-2H-pyran-4-yl)propyl)-2-(m-tolyl)benzo[d]imidazo[2,1-b]thiazole-7-carboxamide] | + (+ >3 and <5) |
| Cc1cccc(-c2cn3c(n2)sc2cc(C(=O)NC4CCNCC4)ccc23)c1 [compound 140, N-(piperidin-4-yl)-2-(m-tolyl)benzo[d]imidazo[2,1-b]thiazole-7-carboxamide] | ++ (++ ≥5 and <6) |
| Cc1cccc(-c2cn3c(n2)sc2cc(C(=O)N4CCNCC4)ccc23)c1 [compound 141, piperazin-1-yl(2-(m-tolyl)benzo[d]imidazo[2,1-b]thiazol-7-yl)methanone] | + (+ >3 and <5) |
| CCN(CC)CCCNC(=O)c1ccc2c(c1)sc1nc(-c3ccc(OC)cc3)cn12 [compound 142, N-(3-(diethylamino)propyl)-2-(4-methoxyphenyl)benzo[d] imidazo[2,1-b]thiazole-7-carboxamide] | ++ (++ ≥5 and <6) |
| CCN(CC)CCCNC(=O)c1ccc2c(c1)sc1nc(-c3cccc(C)c3F)cn12 [compound 143, N-(3-(diethylamino)propyl)-2-(2-fluoro-3-methylphenyl)benzo[d] imidazo[2,1-b]thiazole-7-carboxamide] | ++ (++ ≥5 and <6) |
| CCN(CC)CCCNC(=O)c1ccc2c(c1)sc1nc(-c3cc(C)ccc3F)cn12 [compound 144, N-(3-(diethylamino)propyl)-2-(2-fluoro-5-methylphenyl)benzo[d] imidazo[2,1-b]thiazole-7-carboxamide] | + (+ >3 and <5) |
| CCN(CC)CCCNC(=O)c1ccc2c(c1)sc1nc(-c3cccc(C#N)c3)cn12 [compound 145, 2-(3-cyanophenyl)-N-(3-(diethylamino)propyl)benzo [d]imidazo[2,1-b]thiazole-7-carboxamide] | ++ (++ ≥5 and <6) |
| Cc1cccc(-c2cn3c(n2)sc2cc(C(=O)NCCCN4CCCC4)ccc23)c1 [compound 149, N-(3-(pyrrolidin-1-yl)propyl)-2-(m-tolyl)benzo[d]imidazo[2,1-b]thiazole-7-carboxamide] | ++ (++ ≥5 and <6) |
| Cc1cccc(-c2cn3c(n2)sc2cc(C(=O)NCCCN4CCCC4=O)ccc23)c1 [compound 150, N-(3-(2-oxopyrrolidin-1-yl)propyl)-2-(m-tolyl)benzo[d]imidazo[2,1-b]thiazole-7-carboxamide] | + (+ >3 and <5) |
| Cc1cccc(-c2cn3c(n2)sc2cc(C(=O)N[C@H]4C[C@H](N5CCCCC5)C4)ccc23)c1 [compound 151, N-((1r,3r)-3-(piperidin-1-yl)cyclobutyl)-2-(m-tolyl)benzo[d]imidazo[2,1-b]thiazole-7-carboxamide] | + (+ >3 and <5) |
| CCN(CC)CCCNC(=O)c1ccc2c(c1)sc1nc(-c3cccc(OC)c3)cn12 [compound 152, N-(3-(diethylamino)propyl)-2-(3-methoxyphenyl)benzo[d] imidazo[2,1-b]thiazole-7-carboxamide] | ++ (++ ≥5 and <6) |
| CCN(CC)CCCNC(=O)c1ccc2c(c1)sc1nc(-c3cccc(-c4ccccc4)c3)cn12 [compound 153, 2-([1,1′-biphenyl]-3-yl)-N-(3-(diethylamino)propyl)benzo [d]imidazo[2,1-b]thiazole-7-carboxamide] | + (+ >3 and <5) |
| CCN(CC)CCCNC(=O)c1ccc2c(c1)sc1nc(-c3ccc(C(=O)N(C)C)cc3)cn12 [compound 154, N-(3-(diethylamino)propyl)-2-(4-(dimethylcarbamoyl)phenyl) benzo[d]imidazo[2,1-b]thiazole-7-carboxamide formate] | + (+ >3 and <5) |
| CCNCCCNC(=O)c1ccc2c(c1)sc1nc(-c3cccc(C)c3)cn12 [compound 155] | ++ (++ ≥5 and <6) |
| Cc1cccc(-c2cn3c(n2)sc2cc(C(=O)NCCC4CCCN4)ccc23)c1 (centres unmarked) [compound 156, N-(2-(pyrrolidin-2-yl)ethyl)-2-(m-tolyl)benzo[d]imidazo[2,1-b]thiazole-7-carboxamide] | ++ (++ ≥5 and <6) |
| CN[C@H]1C[C@@H](NC(=O)c2ccc3c(c2)sc2nc(-c4cccc(C)c4)cn23)C1 [compound 157, N-((1s,3s)-3-(methylamino)cyclobutyl)-2-(m-tolyl)benzo[d]imidazo[2,1-b]thiazole-7-carboxamide formate] | ++ (++ ≥5 and <6) |
